# Results published in ChEMBL document CHEMBL5360622, “Leucettinibs, a Class of DYRK/CLK Kinase Inhibitors Inspired by the Marine Sponge Natural Product Leucettamine B” (J Med Chem, 2023).
# pIC50: −log10 of the molar value.
# How the values were obtained:
# [1] = biological target: T1, Dual specificity tyrosine-phosphorylation-regulated kinase 4 (Homo sapiens, UniProt Q9NR20)
# T1 sequence (Q9NR20 whole entry): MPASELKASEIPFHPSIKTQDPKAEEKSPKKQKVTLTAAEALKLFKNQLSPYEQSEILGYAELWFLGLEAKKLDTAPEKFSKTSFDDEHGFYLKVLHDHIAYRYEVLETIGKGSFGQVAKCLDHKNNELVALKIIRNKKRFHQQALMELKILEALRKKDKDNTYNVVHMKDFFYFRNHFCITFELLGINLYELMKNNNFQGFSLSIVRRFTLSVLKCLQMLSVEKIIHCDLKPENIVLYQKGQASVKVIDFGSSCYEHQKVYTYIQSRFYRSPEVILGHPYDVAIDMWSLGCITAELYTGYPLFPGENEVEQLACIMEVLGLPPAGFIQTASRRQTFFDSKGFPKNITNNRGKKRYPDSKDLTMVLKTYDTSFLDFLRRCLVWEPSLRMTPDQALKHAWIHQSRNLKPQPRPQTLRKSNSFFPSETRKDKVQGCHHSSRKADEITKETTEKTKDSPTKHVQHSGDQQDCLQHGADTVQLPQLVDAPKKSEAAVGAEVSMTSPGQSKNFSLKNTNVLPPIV
# [2] = biological target: Cyclin-dependent kinase 5/CDK5 activator 1 (Homo sapiens, UniProt Q00535); format: cell-based, Sf9
# [3] = biological target: Casein kinase I isoform epsilon (Homo sapiens, UniProt P49674)
# [4] = biological target: Glycogen synthase kinase-3 beta (Homo sapiens, UniProt P49841); format: cell-based, Sf9
# [5] = biological target: Dual specificity protein kinase CLK3 (Homo sapiens, UniProt P49761); format: cell-based, Sf9
# [6] = biological target: T2, Dual specificity tyrosine-phosphorylation-regulated kinase 2 (Homo sapiens, UniProt Q92630)
# T2 sequence (Q92630 whole entry): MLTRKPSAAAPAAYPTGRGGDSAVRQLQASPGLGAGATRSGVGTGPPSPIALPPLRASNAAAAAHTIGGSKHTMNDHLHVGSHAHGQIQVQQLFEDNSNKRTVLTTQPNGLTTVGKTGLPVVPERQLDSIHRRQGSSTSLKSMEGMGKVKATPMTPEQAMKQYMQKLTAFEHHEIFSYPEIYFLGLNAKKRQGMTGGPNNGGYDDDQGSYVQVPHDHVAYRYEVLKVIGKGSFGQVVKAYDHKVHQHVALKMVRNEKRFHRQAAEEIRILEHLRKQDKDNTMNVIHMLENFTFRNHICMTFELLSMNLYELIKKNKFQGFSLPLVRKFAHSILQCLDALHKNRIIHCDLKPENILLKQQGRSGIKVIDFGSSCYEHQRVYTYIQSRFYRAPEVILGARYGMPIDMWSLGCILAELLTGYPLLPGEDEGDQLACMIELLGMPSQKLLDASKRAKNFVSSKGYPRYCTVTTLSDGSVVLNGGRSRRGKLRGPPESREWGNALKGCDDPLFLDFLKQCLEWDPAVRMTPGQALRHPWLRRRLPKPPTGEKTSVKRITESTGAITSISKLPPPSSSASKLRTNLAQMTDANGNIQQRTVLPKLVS
# [7] = biological target: Dual specificity protein kinase CLK2 (Homo sapiens, UniProt P49760)
# Chain of Dual specificity protein kinase CLK2 (P49760 whole entry): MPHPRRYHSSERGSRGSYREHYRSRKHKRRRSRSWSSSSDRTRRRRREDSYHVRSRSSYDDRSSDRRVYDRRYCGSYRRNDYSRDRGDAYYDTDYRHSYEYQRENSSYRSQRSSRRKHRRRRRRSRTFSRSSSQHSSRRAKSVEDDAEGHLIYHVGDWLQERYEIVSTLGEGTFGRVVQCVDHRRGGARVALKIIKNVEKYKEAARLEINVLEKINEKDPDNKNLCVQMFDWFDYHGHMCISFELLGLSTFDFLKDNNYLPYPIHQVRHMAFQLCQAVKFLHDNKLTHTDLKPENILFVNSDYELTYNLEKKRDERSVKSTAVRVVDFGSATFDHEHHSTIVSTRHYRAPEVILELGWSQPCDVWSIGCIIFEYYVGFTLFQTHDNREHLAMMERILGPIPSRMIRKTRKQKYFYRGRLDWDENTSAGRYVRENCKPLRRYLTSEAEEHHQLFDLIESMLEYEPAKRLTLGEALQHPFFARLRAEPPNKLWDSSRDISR
# Chain of Casein kinase I isoform epsilon (P49674 whole entry, canonical isoform): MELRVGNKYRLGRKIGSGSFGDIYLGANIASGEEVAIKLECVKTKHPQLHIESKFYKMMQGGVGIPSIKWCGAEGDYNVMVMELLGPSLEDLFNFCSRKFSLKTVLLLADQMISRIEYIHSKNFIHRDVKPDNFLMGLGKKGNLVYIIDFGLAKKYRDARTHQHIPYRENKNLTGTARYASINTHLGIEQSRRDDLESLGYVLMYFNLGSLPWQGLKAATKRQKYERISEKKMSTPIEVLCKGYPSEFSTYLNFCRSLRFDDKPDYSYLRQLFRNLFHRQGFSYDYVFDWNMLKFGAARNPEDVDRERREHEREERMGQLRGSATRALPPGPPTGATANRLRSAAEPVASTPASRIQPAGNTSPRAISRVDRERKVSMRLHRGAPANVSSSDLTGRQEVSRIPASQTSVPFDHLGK
# Chain of Cyclin-dependent kinase 5/CDK5 activator 1 (Q00535 whole entry, canonical isoform): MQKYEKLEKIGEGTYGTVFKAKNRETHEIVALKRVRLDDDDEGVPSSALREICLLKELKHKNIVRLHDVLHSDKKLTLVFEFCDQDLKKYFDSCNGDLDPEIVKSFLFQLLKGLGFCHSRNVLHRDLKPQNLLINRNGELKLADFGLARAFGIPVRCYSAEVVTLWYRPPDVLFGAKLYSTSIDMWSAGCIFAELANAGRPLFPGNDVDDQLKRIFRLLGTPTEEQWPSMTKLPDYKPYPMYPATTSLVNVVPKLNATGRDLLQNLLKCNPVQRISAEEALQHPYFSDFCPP
# Chain of Cyclin-dependent kinase 5/CDK5 activator 1 (Q15078 whole entry, further chain, canonical isoform): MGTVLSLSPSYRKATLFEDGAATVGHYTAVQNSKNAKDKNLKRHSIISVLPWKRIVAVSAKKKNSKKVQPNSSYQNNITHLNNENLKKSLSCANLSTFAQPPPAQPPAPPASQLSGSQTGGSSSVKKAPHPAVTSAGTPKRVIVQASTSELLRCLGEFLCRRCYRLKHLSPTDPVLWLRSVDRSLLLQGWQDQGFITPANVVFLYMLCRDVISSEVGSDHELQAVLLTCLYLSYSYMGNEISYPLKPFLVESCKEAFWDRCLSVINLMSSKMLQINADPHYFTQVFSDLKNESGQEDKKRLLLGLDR
# Chain of Dual specificity protein kinase CLK3 (P49761 whole entry): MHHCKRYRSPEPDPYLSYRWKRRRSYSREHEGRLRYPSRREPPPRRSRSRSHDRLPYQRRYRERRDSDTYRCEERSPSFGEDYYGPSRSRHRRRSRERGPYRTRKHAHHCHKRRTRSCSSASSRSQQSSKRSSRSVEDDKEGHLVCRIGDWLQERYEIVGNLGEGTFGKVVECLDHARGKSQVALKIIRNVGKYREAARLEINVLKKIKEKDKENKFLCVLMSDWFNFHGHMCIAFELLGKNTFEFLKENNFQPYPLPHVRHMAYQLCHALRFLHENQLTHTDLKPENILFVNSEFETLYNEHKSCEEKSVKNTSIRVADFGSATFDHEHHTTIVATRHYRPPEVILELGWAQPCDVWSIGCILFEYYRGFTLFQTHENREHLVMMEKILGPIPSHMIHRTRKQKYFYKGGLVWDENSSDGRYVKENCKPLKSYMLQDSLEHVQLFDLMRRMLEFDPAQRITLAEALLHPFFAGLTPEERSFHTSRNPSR
# Chain of Glycogen synthase kinase-3 beta (P49841 whole entry): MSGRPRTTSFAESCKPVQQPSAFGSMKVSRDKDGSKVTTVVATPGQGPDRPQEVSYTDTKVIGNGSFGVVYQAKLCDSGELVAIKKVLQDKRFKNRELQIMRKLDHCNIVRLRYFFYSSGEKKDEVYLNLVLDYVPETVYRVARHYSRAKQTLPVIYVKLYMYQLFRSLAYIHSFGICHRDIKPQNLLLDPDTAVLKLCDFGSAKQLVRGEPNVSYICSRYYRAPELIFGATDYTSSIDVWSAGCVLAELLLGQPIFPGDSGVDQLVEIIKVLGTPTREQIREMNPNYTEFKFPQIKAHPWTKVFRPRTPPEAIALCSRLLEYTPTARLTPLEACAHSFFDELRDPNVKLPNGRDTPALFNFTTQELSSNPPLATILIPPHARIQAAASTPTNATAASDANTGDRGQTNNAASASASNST
Compound,pIC50 [1],pIC50 [2],pIC50 [3],pIC50 [4],pIC50 [5],pIC50 [6],pIC50 [7]
O=C1NC(N[C@@H]2CCC[C@H]2O)=N/C1=C\c1ccc2ncsc2c1 (racemic),6.26,< 5.00,< 5.00,< 5.00,6.65,6.33,–
O=C1NC(N[C@H]2CC[C@H](O)CC2)=N/C1=C\c1ccc2ncsc2c1,5.75,5.31,< 5.00,5.02,6.41,6.20,7.01
O=C1NC(NC2CCCCC(F)(F)C2)=N/C1=C\c1ccc2ncsc2c1 (racemic),6.76,6.22,6.38,5.87,–,–,–
O=C1NC(N[C@@H](CO)CC2CCCC2)=N/C1=C\c1ccc2ncsc2c1,5.76,< 5.00,< 5.00,5.54,5.84,5.40,7.40
CN(C)C12CC3CC(CC(NC4=N/C(=C\c5ccc6ncsc6c5)C(=O)N4)(C3)C1)C2,6.39,5.30,5.83,5.87,5.74,–,–
CN1CCN(c2ncc(NC3=N/C(=C\c4ccc5ncsc5c4)C(=O)N3)cn2)CC1,6.53,< 5.00,< 5.00,5.93,5.72,6.76,6.84
O=C1NC(NC23CC4CC(CC2C4)C3)=N/C1=C\c1ccc2ncsc2c1,–,5.49,5.61,6.07,6.94,–,–
CC(=O)NC12CC3CC(C1)CC(NC1=N/C(=C\c4ccc5ncsc5c4)C(=O)N1)(C3)C2,6.58,6.21,5.92,6.18,6.21,–,–
CS(=O)(=O)NC12CC3CC(CC(NC4=N/C(=C\c5ccc6ncsc6c5)C(=O)N4)(C3)C1)C2,6.63,5.81,5.24,6.29,5.99,–,–
O=C1NC(NC23CC4CC(CC(F)(C4)C2)C3)=N/C1=C\c1ccc2ncsc2c1,–,6.84,6.21,6.77,6.71,–,–
O=C1NC(NC23CC4CC(CC(NC(=O)C5CC5)(C4)C2)C3)=N/C1=C\c1ccc2ncsc2c1,6.57,5.84,5.64,6.44,6.18,–,–
COC12CC3CC(CC(NC4=N/C(=C\c5ccc6ncsc6c5)C(=O)N4)(C3)C1)C2,6.55,6.52,5.75,6.34,6.55,–,–
O=C1NC(NC2CCC(F)(F)CC2)=N/C1=C\c1ccc2ncsc2c1,5.70,< 5.00,< 5.00,< 5.00,6.33,6.34,–
O=C1NC(NC2C3CC4CC(C3)CC2C4)=N/C1=C\c1ccc2ncsc2c1 (stereo not drawn),6.90,< 5.00,< 5.00,5.32,5.92,6.24,7.72
O=C1NC(NC23CC4CC(CC(O)(C4)C2)C3)=N/C1=C\c1ccc2ncsc2c1,–,6.48,5.96,6.50,6.67,–,–
O=C1NC(NCC23CC4CC(CC(C4)C2)C3)=N/C1=C\c1ccc2ncsc2c1,5.43,< 5.00,–,< 5.00,5.83,< 5.00,7.43
O=C1NC(N[C@@H](CO)CC2CC2)=N/C1=C\c1ccc2ncsc2c1,6.14,< 5.00,< 5.00,5.36,6.16,5.09,7.38

# Further lines, results first:
pIC50 [1],pIC50 [2],pIC50 [3],pIC50 [4],pIC50 [5],pIC50 [6],pIC50 [7],Compound
–,5.63,–,5.95,–,–,–,NC[C@H](NC1=N/C(=C\c2ccc3ncsc3c2)C(=O)N1)c1ccccc1
–,< 5.00,< 5.00,< 5.00,5.74,6.13,6.39,O=C1NC(Nc2ccc(F)cc2)=N/C1=C\c1ccc2ncsc2c1
–,5.60,–,6.99,–,–,–,NC[C@@H](NC1=N/C(=C\c2ccc3ncsc3c2)C(=O)N1)c1ccccc1
–,6.03,–,6.21,–,–,–,NCC(NC1=N/C(=C\c2ccc3ncsc3c2)C(=O)N1)c1ccccc1 (stereo not drawn)
5.42,< 5.00,< 5.00,5.25,6.35,6.59,6.21,COC[C@@H](NC1=N/C(=C\c2ccc3ncsc3c2)C(=O)N1)c1ccccc1
5.86,< 5.00,< 5.00,5.55,6.15,5.70,7.28,O=C1NC(NCc2cccnc2)=N/C1=C\c1ccc2ncsc2c1
–,< 5.00,< 5.00,5.05,< 5.00,5.73,–,COc1nc(C)ccc1NC1=N/C(=C\c2ccc3ncsc3c2)C(=O)N1
5.80,< 5.00,< 5.00,< 5.00,5.94,5.81,6.67,CC[C@H](CO)NC1=N/C(=C\c2ccc3ncsc3c2)C(=O)N1
5.98,< 5.00,< 5.00,5.18,6.39,–,6.40,O=C1NC(N[C@H]2CCOC2)=N/C1=C\c1ccc2ncsc2c1
6.61,< 5.00,5.47,6.00,5.98,–,7.55,CN1CCN(c2ccc(NC3=N/C(=C\c4ccc5ncsc5c4)C(=O)N3)cc2)CC1
5.50,< 5.00,< 5.00,< 5.00,5.80,5.76,6.32,CC[C@@H](CO)NC1=N/C(=C\c2ccc3ncsc3c2)C(=O)N1
6.56,5.70,5.20,6.64,–,–,7.52,CNCC(NC1=N/C(=C\c2ccc3ncsc3c2)C(=O)N1)c1ccccc1 (racemic)
5.88,< 5.00,< 5.00,< 5.00,6.70,–,7.08,O=C1NC(Nc2cccnc2)=N/C1=C\c1ccc2ncsc2c1
5.38,< 5.00,< 5.00,5.59,6.70,5.95,6.95,Cn1ccc(NC2=N/C(=C\c3ccc4ncsc4c3)C(=O)N2)n1
6.35,< 5.00,< 5.00,< 5.00,6.27,5.92,–,O=C1NC(N[C@@H]2CCC[C@@H]2O)=N/C1=C\c1ccc2ncsc2c1 (racemic)
6.47,< 5.00,< 5.00,5.29,6.90,6.80,7.82,COC[C@H](NC1=N/C(=C\c2ccc3ncsc3c2)C(=O)N1)c1ccccc1
5.56,< 5.00,< 5.00,< 5.00,6.13,–,6.39,O=C1NC(N[C@@H]2CCOC2)=N/C1=C\c1ccc2ncsc2c1
